Measured values as given in publication PMC11124822, “Discovery and Anticancer Screening of Novel Oxindole-Based Derivative Bearing Pyridyl Group as Potent and Selective Dual FLT3/CDK2 Kinase Inhibitor” (Pharmaceuticals, 2024).

Assays:
Assay in all cases: NCI-60 antiproliferative screen (SRB)
LOX IMVI = format: cell-based, human; settings: five-dose, 48 h; LOX IMVI; read-out: LC50 (the source's name)
DU-145 = format: cell-based, human; settings: 48 h
OVCAR-8 = format: cell-based, human; settings: 48 h
HOP-92 = format: cell-based, human; settings: 48 h
NCI-H23 = format: cell-based, human; settings: 48 h
SNB-19 = format: cell-based, human; settings: 48 h
CAKI-1 = format: cell-based, human; settings: 48 h
SK-OV-3 = format: cell-based, human; settings: 48 h
HCT-15 = format: cell-based, human; settings: 48 h
HOP-62 = format: cell-based, human; settings: 48 h
SR = settings: Homo sapiens, 48 h, read-out: Growth inhibition (%)
Procedure: Anticancer activity was tested against 60 cancer cell lines (NCI-60) after 48h treatments with a single dosage of 10 μM of compounds by using sulforhodamine B assay [39] on the traditional 96-well platform. […] The human cancer cell lines of the NCI-60 panel are grown in RPMI 1640 medium supplemented with 5% FBS (fetal bovine serum) and 2 mM L-glutamine. […] For further analysis of promising compounds, five dose screens were performed against the NCI-60 panel. Drug treatments are performed in 5 doses using 10-fold or ½ log dose dilutions.

SW-620 = format: cell-based, human; settings: 48 h
M14 = format: cell-based, human; settings: 48 h
UACC-62 = format: cell-based, human; settings: 48 h
NCI/ADR-RES = format: cell-based, human; settings: 48 h
ACHN = format: cell-based, human; settings: 48 h
NCI-H460 = format: cell-based, human; settings: 48 h
OVCAR-4 = settings: Homo sapiens, OVCAR-4, 48 h, read-out: Growth inhibition (%)

SMILES: O=C1Nc2cc(Cl)ccc2C1=Cc1ccc(OCc2cccnc2)cc1 (mixture of isomers) [Compound 5l, (E/Z)-6-Chloro-3-[4-(pyridin-3-ylmethoxy)benzylidene] indolin-2-one]
- CC50 (LOX IMVI): 96.6 µM
- inhibition at 10 µM (DU-145; Homo sapiens, 10 µM single dose, DU-145 (Prostate), read-out: Growth inhibition (%)): 58.6%
- GI50 (DU-145; Homo sapiens, five-dose, DU-145): 13.2 µM
- TGI (DU-145; five-dose, DU-145): 54.90 µM
- inhibition at 10 µM (OVCAR-8; Homo sapiens, 10 µM single dose, OVCAR-8 (Ovarian), read-out: Growth inhibition (%)): 88.6%
- GI50 (OVCAR-8; Homo sapiens, five-dose, OVCAR-8): 7.96 µM
- TGI (OVCAR-8; five-dose, OVCAR-8): 45.20 µM
- inhibition at 10 µM (HOP-92; Homo sapiens, 10 µM single dose, HOP-92 (NSCLC), read-out: Growth inhibition (%)): 56.1%
- GI50 (HOP-92; Homo sapiens, five-dose, HOP-92): 6.51 µM
- TGI (HOP-92; five-dose, HOP-92): 62.70 µM
- inhibition at 10 µM (NCI-H23; Homo sapiens, 10 µM single dose, NCI-H23 (NSCLC), read-out: Growth inhibition (%)): 75.6%
- GI50 (NCI-H23; Homo sapiens, five-dose, NCI-H23): 5.93 µM
- TGI (NCI-H23; five-dose, NCI-H23): >100 µM
- inhibition at 10 µM (SNB-19; Homo sapiens, 10 µM single dose, SNB-19 (CNS), read-out: Growth inhibition (%)): 56.2%
- GI50 (SNB-19; Homo sapiens, five-dose, SNB-19): 12.4 µM
- TGI (SNB-19; five-dose, SNB-19): >100 µM
- inhibition at 10 µM (CAKI-1; Homo sapiens, 10 µM single dose, CAKI-1 (Renal), read-out: Growth inhibition (%)): 69.8%
- GI50 (CAKI-1; Homo sapiens, five-dose, CAKI-1): 4.44 µM
- CC50 (CAKI-1; Homo sapiens, five-dose, CAKI-1, read-out: LC50 (the source's name)): > 100 µM
- TGI (CAKI-1; five-dose, CAKI-1): 26.90 µM
- inhibition at 10 µM (SK-OV-3; Homo sapiens, 10 µM single dose, SK-OV-3 (Ovarian), read-out: Growth inhibition (%)): 32.2%
- GI50 (SK-OV-3; Homo sapiens, five-dose, SK-OV-3): 71.8 µM
- CC50 (SK-OV-3; Homo sapiens, five-dose, SK-OV-3, read-out: LC50 (the source's name)): > 100 µM
- TGI (SK-OV-3; five-dose, SK-OV-3): >100 µM
- inhibition at 10 µM (HCT-15; Homo sapiens, 10 µM single dose, HCT-15 (Colon), read-out: Growth inhibition (%)): 97.2%
- GI50 (HCT-15; Homo sapiens, five-dose, HCT-15): 3.46 µM
- TGI (HCT-15; five-dose, HCT-15): 25.20 µM
- inhibition at 10 µM (HOP-62; Homo sapiens, 10 µM single dose, HOP-62 (NSCLC), read-out: Growth inhibition (%)): 72.9%
- GI50 (HOP-62; Homo sapiens, five-dose, HOP-62): 12.9 µM
- CC50 (HOP-62; Homo sapiens, five-dose, HOP-62, read-out: LC50 (the source's name)): > 100 µM
- TGI (HOP-62; five-dose, HOP-62): >100 µM
- inhibition at 10 µM (SR): 84.2%
- inhibition at 10 µM (SW-620; Homo sapiens, 10 µM single dose, SW-620 (Colon), read-out: Growth inhibition (%)): 92.7%
- GI50 (SW-620; Homo sapiens, five-dose, SW-620): 2760 nM
- TGI (SW-620; five-dose, SW-620): >100 µM
- inhibition at 10 µM (M14; Homo sapiens, 10 µM single dose, M14 (Melanoma), read-out: Growth inhibition (%)): 77.1%
- GI50 (M14; Homo sapiens, five-dose, M14): 29 µM
- TGI (M14; five-dose, M14): >100 µM
- inhibition at 10 µM (UACC-62; Homo sapiens, 10 µM single dose, UACC-62 (Melanoma), read-out: Growth inhibition (%)): 64.3%
- GI50 (UACC-62; Homo sapiens, five-dose, UACC-62): 7.7 µM
- TGI (UACC-62; five-dose, UACC-62): 43.50 µM
- inhibition at 10 µM (NCI/ADR-RES; Homo sapiens, 10 µM single dose, NCI/ADR-RES (Ovarian), read-out: Growth inhibition (%)): 112%
- GI50 (NCI/ADR-RES; Homo sapiens, five-dose, NCI/ADR-RES): 3.45 µM
- TGI (NCI/ADR-RES; five-dose, NCI/ADR-RES): 23.60 µM
- inhibition at 10 µM (ACHN; Homo sapiens, 10 µM single dose, ACHN (Renal), read-out: Growth inhibition (%)): 55.1%
- GI50 (ACHN; Homo sapiens, five-dose, ACHN): 10.8 µM
- TGI (ACHN; five-dose, ACHN): 75.30 µM
- inhibition at 10 µM (NCI-H460; Homo sapiens, 10 µM single dose, NCI-H460 (NSCLC), read-out: Growth inhibition (%)): 77.7%
- GI50 (NCI-H460; Homo sapiens, five-dose, NCI-H460): 14 µM
- CC50 (NCI-H460; Homo sapiens, five-dose, NCI-H460, read-out: LC50 (the source's name)): > 100 µM
- TGI (NCI-H460; five-dose, NCI-H460): >100 µM
- inhibition at 10 µM (OVCAR-4): 68.4%
